In patent US9512106B2, “Smoothened modulators and methods of use thereof” (Duke University, priority 2012, dated 2016):
Read-outs that look alike come from different tables or passages of the source.

Assays:
[1] = Storage of the active impurity in solution, activity retained; format: physicochemical; conditions: room temperature, DMSO or methanolic solution, 1 week
Description: Subsequent characterization of this impurity by high-resolution mass spectrometry (HRMS) and by extensive NMR analysis allowed assignment of structure to the impurity as shown for Compound A8 (FIG. 2A). Confirmation of the structural assignment was achieved by synthesis of authentic material using the route described in FIG. 2B. Synthesized material matched the isolated material from the library sample by extensive NMR analysis, HRMS, TLC and HPLC.

Hh-induced hair growth = assay: Hair regrowth after depilation, topical treatment; format: in vivo, mouse; conditions: C57BL/6 female mice, 0.5 mM, 30 μl topically daily for two weeks
Experimental: Eight-week-old C57BL/6 female mice were shaved on the dorsal surface and depilated with Nair® (Carter-Wallace, New York, N.Y.). Briefly, the bottom half of the shaved area was treated with Nair for 2 min, and the depilated area rinsed with water to remove residual Nair. Compound A8 was dissolved in a vehicle of 95% acetone/5% DMSO at a concentration of 0.5 mM, and 30 μl of A8 solution or the vehicle were applied topically to the depilated area of mice daily for two weeks. Mice were anesthetized briefly using 3% isoflurane anesthetic inhalant during all procedures. Five mice were included in each treatment group. All animals were treated in accordance with protocols approved by Institutional Animal Care and Use Committee at Duke University.
Hedgehog signaling plays a key role in regulating hair follicle growth40. To determine the efficacy of the novel Smo inhibitor A8 in suppressing Hh signaling in vivo, we used a model of hedgehog inhibition that examines inhibition of hair-growth41-43. Eight-week old Female C57BL mice in telogen phase of the hair cycle were used in these experiments44. Chemical depilation with Nair® induces anagen phase and regrowth of hair by activating the Hh signaling pathway. In our experiments, most of the hair on the back of vehicle treated mice grew back 2 weeks after removal with Nair (data not shown).

Smo-633 = target: T1, Smo-633 (Homo sapiens, UniProt Q99835); assay: Smo/βarr2-GFP translocation high-throughput imaging assay (antagonist mode); format: cell-based; conditions: for inhibition of intracellular βarr2-GFP aggregation: U2OS cells with Smo-633 and βarr2-GFP, 5 μM
T1 construct: expressed in transfected cells
Description: U2OS cells stably expressing a chimera Smo-633 receptor and βarr2-GFP were used in HTS screening.
To identify novel Smo inhibitors, we screened chemical libraries using our confocal imaging, cell-based platform assay as the primary high-throughput screening assay. […] Thus, small molecule inhibitors of Smo are identified by the loss of the punctate pattern.
To control for receptor specificity and to rule-out non-specific mechanisms, hits were cross-screened in the same assay format using the vasopressin2 receptor (V2R), a different seven-transmembrane receptor. In this control assay, cells transfected with V2R and βarr2-GFP are stimulated with the agonist arginine vasopressin. […] This control assay helps ensure the mechanism of inhibition is Smo receptor specific and allows molecules with non-specific mechanisms of inhibition to be ruled-out.

Smo-D473H = target: T2, Smo-D473H (Homo sapiens, UniProt Q99835, D473H); assay: [3H]-cyclopamine competitive binding, Smo-D473H mutant; conditions: for competition for binding / displacement of [3H]-cyclopamine from Smo-D473H: U2OS cells overexpressing Smo-D473H
T2 construct: expressed in transfected cells; host or cells: U2OS
Experimental: (§1) FIG. 3. […] The displacement data were analyzed by fitting to a one-site competition curve using Graphpad Prism. Data were acquired in triplicates from three independent experiments and are presented as the mean±SEM.
(§2) For competitive binding assays, U2OS cells overexpressing wild-type Smo or Smo-D473H mutant receptors were grown in 24-well plates and fixed with 4% (v/v) formaldehyde/PBS for 20 min at room temperature (RT).

wild-type Smo = target: T3, wild-type Smo (Homo sapiens, UniProt Q99835); assay: [3H]-cyclopamine competitive binding, wild-type Smo; conditions: 25 nM [3H]-cyclopamine; for displacement of [3H]-cyclopamine from wild-type Smo: U2OS cells overexpressing wild-type Smo; for Ki: fixed U2OS cells overexpressing wild-type Smo, mean±SEM, read-out: Ki, displacement of [3H]-cyclopamine from Smo
T3 construct: expressed in transfected cells; host or cells: U2OS
Experimental: as §1, §2

[2] = tested on: Shh-induced Gli reporter activity; assay: Gli-luciferase reporter assay in Shh-LIGHT2 cells; format: cell-based
Experimental: FIG. 4. […] Cells were then exposed to [3H]-thymidine for 16 h and [3H]-thymidine incorporation was measured. Data were fit using Graphpad Prism (mean±SEM, n=3).
The Gli-luciferase assay was conducted in Shh-LIGHT2 cells, a clonal NIH3T3 cell line stably incorporating Gli-dependent firefly luciferase and constitutive Renilla luciferase reporters35. Cells were treated with purified Sonic Hedgehog protein (50 ng/mL) together with the corresponding compounds for 2 days. The reporter activity was determined by using the Dual-Luciferase Reporter Assay System (Promega).

[3] = tested on: cerebellar granular cell precursor (GCP) cells; assay: GCP cell proliferation ([3H]-thymidine incorporation); format: cell-based, mouse; conditions: read-out: IC50, inhibition of GCP proliferation
Experimental: FIG. 4. Compound A8 inhibits Gli-reporter activity and GCP proliferation. […] Cells were then exposed to [3H]-thymidine for 16 h and [3H]-thymidine incorporation was measured. Data were fit using Graphpad Prism (mean±SEM, n=3).
Primary neuronal granular cell precursor (GCP) cells were obtained from the cerebellum of 7-day postnatal C57BL/6 mice and labeled with [3H]-thymidine. Proliferation assays were performed as previously described28.

[4] = target: T4, vasopressin2 receptor (V2R) (Homo sapiens, UniProt P30518); conditions: cells transfected with V2R and βarr2-GFP, arginine vasopressin stimulated; cited from earlier work
T4 construct: expressed in transfected cells

[5] = mouse GCP cells, 48 hours with Shh, then [3H]-thymidine 16 h, mean±SEM, n=3

T2 sequence (Q99835 28-787 D473H): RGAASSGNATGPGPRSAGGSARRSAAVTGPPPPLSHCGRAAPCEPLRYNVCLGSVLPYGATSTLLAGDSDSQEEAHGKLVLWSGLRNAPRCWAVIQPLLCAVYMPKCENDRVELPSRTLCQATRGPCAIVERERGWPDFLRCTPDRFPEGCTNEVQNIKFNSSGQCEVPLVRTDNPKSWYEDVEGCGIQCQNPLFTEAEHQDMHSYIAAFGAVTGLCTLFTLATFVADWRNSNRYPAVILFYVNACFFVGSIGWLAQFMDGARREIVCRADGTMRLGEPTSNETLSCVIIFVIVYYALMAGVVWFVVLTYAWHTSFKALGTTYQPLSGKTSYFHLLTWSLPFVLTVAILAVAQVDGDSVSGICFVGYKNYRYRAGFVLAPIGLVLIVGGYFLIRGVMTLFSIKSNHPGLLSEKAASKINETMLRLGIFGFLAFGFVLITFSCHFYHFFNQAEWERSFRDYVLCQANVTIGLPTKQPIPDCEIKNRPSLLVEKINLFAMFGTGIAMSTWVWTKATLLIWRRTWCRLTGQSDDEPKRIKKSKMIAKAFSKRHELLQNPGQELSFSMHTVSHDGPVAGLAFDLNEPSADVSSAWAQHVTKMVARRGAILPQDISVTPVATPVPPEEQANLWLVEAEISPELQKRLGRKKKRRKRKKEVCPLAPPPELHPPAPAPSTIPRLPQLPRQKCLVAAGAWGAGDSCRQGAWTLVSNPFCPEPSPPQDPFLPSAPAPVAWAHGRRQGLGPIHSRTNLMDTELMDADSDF
T1 sequence (Q99835 with tags, fused parts or gaps limits assumed): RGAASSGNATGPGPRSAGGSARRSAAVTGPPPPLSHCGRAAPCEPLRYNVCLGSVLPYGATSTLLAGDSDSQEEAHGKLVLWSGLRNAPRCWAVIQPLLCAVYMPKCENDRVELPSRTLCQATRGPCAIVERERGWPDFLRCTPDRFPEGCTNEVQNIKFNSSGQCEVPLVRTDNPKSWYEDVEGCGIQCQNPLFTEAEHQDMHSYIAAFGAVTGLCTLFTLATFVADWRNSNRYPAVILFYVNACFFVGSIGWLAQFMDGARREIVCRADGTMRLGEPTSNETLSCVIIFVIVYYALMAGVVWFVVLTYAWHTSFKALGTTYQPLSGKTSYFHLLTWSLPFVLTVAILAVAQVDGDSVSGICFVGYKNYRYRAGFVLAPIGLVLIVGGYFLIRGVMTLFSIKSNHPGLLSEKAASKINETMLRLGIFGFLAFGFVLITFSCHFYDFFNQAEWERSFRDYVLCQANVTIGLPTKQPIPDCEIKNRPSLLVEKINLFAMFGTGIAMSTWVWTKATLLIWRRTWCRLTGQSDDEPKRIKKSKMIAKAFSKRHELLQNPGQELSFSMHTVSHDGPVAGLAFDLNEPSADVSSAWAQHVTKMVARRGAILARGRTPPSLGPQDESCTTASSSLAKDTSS
T3 sequence (Q99835 28-787): as the sequence (Q99835 28-787 D473H) above, with H446D counted along it
T4 sequence (P30518 whole entry, species assumed): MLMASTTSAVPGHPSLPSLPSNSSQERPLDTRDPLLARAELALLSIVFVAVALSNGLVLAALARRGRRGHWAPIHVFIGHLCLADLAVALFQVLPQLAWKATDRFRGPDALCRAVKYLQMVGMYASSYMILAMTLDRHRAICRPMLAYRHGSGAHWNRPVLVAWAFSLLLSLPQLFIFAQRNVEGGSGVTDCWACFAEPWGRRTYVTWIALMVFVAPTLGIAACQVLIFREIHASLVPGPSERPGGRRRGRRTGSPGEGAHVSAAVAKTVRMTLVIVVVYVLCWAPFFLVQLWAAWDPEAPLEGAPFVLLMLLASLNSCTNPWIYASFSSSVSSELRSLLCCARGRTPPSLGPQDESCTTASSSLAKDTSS

Structure (SMILES)	inhibition of intracellular βarr2-GFP aggregation (Smo-633)	competition for binding / displacement of [3H]-cyclopamine from Smo-D473H (Smo-D473H)	displacement of [3H]-cyclopamine from wild-type Smo (wild-type Smo)	Ki (wild-type Smo)	IC50 [3, 5]	further results
O=C(NC1CCN(Cc2ccc(N3CCC(NC(=O)c4cccc(-c5cccnc5)c4)CC3)nc2)CC1)c1cccc(-c2cccnc2)c1 [Compound A8]	activity of the synthesized material was confirmed	completely displace	completely displaced	37.9 ± 3.7 nM	16.6 ± 2.3 nM	activity after storage in solution [1]: retained activity; Hh-induced hair growth (Hh-induced hair growth): largely inhibited; Ki (Smo-D473H; fixed U2OS cells overexpressing Smo-D473H, 25 nM [3H]-cyclopamine, mean±SEM, read-out: Ki, displacement of [3H]-cyclopamine from Smo-D473H receptors): 478 ± 123 nM; IC50 ([2]; Shh-LIGHT2 cells, Sonic Hedgehog 50 ng/mL, mean±SEM, n=3, read-out: IC50, inhibition of Shh-induced Gli reporter activity): 2.6 ± 0.4 nM
CS(=O)(=O)c1ccc(C(=O)Nc2ccc(Cl)c(-c3ccccn3)c2)c(Cl)c1 [GDC-0449]	–	largely ineffective	completely displaced	–	16.4 ± 2.5 nM	displacement of [3H]-cyclopamine from Smo-D473H at high concentration (Smo-D473H; 10 μM compound): only partially displaced
Cc1c(C(=O)Nc2ccc(N3C[C@@H](C)O[C@@H](C)C3)nc2)cccc1-c1ccc(OC(F)(F)F)cc1 [LDE-225]	–	largely ineffective	completely displaced	6 ± 1.4 nM	–	–
CCN(C)Cc1ccc(N2CCC(NC(=O)c3cccc(-c4cccnc4)c3)CC2)nc1 [Tripos 3910]	–	–	–	–	–	Smo antagonist activity of resynthesized sample compared to previous test samples (Smo-633; material synthesized at Duke, assay not specified): substantially reduced Smo antagonist activity
CC1=C2C[C@H]3[C@@H](CC=C4C[C@@H](O)CC[C@@]43C)[C@@H]2CC[C@]12O[C@@H]1C[C@H](C)CN[C@H]1[C@H]2C [cyclopamine]	inhibits the aggregation of βarr2-GFP	completely displace	completely displaced	–	–	inhibition of aggregation of V2R and βarr2-GFP [4]: not inhibited; inhibition of the Gli-reporter activity ([2]; 1 μM concentration): strong inhibition; IC50 ([3]; Mus musculus): 414 ± 73 nM
